According to patent publication US5149707A, “1-((2-fluorophenyl)(4-fluorophenyl)phenylmethyl)-1H-imidazole useful as antifungal agent” (J. Uriach & Cia, S.A., priority 1988, dated 1992):
≈ marks a conversion by molar mass, not a printed value. Like-named read-outs stand apart in the source and are kept apart here.

Legend:
Microsporum gypseum = test: In vitro antifungal activity (MIC), agar dilution; type: cell-based; conditions: Nannizzia gypsea
Description: (§1) The antifungal activity of 1-[(2-fluorophenyl)(4-fluorophenyl)phenylmethyl]-1H-imidazole was shown by its ability to inhibit the growth of different species of yeast and filamentous fungi in vitro. The activity was recorded as the MIC value, that is, the minimum amount of product needed to achieve the complete inhibition of the in vitro growth of the test organism. Testing was performed as follows: a solution of the antifungal agent in ethanol was diluted with DST agar (pH 6.5) or Emmon's Sabouraud dextrose agar to obtain concentrations between 10 and 0.01 mcg/ml, or 80 and 0.16 mcg/m, respectively. The inoculum was standarized in order 1×10^5 cfu/ml, and 10 mcl of each organism was seeded into the agar surface. Incubation was then allowed at 30° C. during 3 days (DST) or 2 days (Emmon's) for yeasts and 10 days for filamentous fungi. Following incubation, the zones of inhibition were measured and compared to an inoculated, drug-free control to yield the MIC value.

[1] = tested on: Microsporum canis (clinica); test: In vitro antifungal activity (MIC), agar dilution; type: cell-based
Description: as §1

[2] = tested on: Aspergillus fumigatus (1); test: In vitro antifungal activity (MIC), agar dilution; type: cell-based
Description: as §1

[3] = tested on: T. mentagrophytes (clinica) (2); test: In vitro antifungal activity (MIC), agar dilution; type: cell-based; conditions: Trichophyton mentagrophytes
Description: as §1

C. albicans serotipo A = test: In vitro antifungal activity (MIC), agar dilution; type: cell-based
Description: as §1

Microsporum gypseum (-) = test: In vitro antifungal activity (MIC), agar dilution; type: cell-based; conditions: Nannizzia gypsea
Description: as §1

[4] = tested on: C. parapsilosis (clinica); test: In vitro antifungal activity (MIC), agar dilution; type: cell-based; conditions: Lodderomyces parapsilosis
Description: as §1

[5] = tested on: Aspergillus fumigatus (2); test: In vitro antifungal activity (MIC), agar dilution; type: cell-based
Description: as §1

C. tropicalis SQ 1647 = test: In vitro antifungal activity (MIC), agar dilution; type: cell-based
Description: as §1

S. cerevisiae ATCC 9763 = test: In vitro antifungal activity (MIC), agar dilution; type: cell-based; conditions: Saccharomyces cerevisiae
Description: as §1

[6] = tested on: C. pseudotropicalis ATCC 28838; test: In vitro antifungal activity (MIC), agar dilution; type: cell-based; conditions: Kluyveromyces marxianus
Description: as §1

[7] = tested on: T. mentagrophytes (clinica) (5); test: In vitro antifungal activity (MIC), agar dilution; type: cell-based; conditions: Trichophyton mentagrophytes
Description: as §1

[8] = Liposolubility (log P octanol-water); type: physicochemical
fungi (some species) = test: Preliminary tests of antifungal activity; type: cell-based
Pharmacokinetics = conditions: in words
mice = conditions: mouse, in vivo
[9] = tested on: yeast and filamentous fungi; test: Comparative antifungal tests of Examples 18 to 20; type: cell-based
Description: as §1, with “Incubation was then allowed at 30° C. during 3 days (DST) or 2 days (Emmon's) for yeasts and 10 days for filamentous fungi.” left out
The growth inhibition percentage of 5 different isolates on shake cultures was determined 24 h and 48 h after incubation at 28° C. […] The growth inhibition percentage was determined by spectrophotometry (450 nm). […]
The antifungal activity of 1-[(2-fluorophenyl)(4-fluorophenyl)phenylmethyl]-1H-imidazole and bifonazole was determined by serial dilutions in Sabouraud gentamycin broth using microplates. […] MIC's were determined as in example 18. […]

Tolerance (DL50) in mice = conditions: mouse, in vivo
[10] = Emmon's Sabouraud dextrose agar
[11] = Emmon's Sabouraud dextrose agar, read-out: MIC

Q: What does the source list for `c1ccc(-c2ccc(C(c3ccccc3)n3ccnc3)cc2)cc1` (stereo not shown) [Bifonazole, 1-[(4-biphenyl)-phenylmethyl]-1H-imidazole, reference compound]?
A: MIC (Microsporum gypseum; DST agar): 0.1 µg/mL (≈ 0.322 µM); MIC (Microsporum gypseum; [10]): 0.63 µg/mL (≈ 2.03 µM); MIC ([1]; DST agar): 0.025 µg/mL (≈ 0.0805 µM); MIC [1, 10]: 2.5 µg/mL (≈ 8.05 µM); MIC ([2]; DST agar): 0.1 µg/mL (≈ 0.322 µM); MIC [2, 10]: 0.31 µg/mL (≈ 0.999 µM); MIC ([3]; DST agar): 10 µg/mL (≈ 32.2 µM); MIC [3, 10]: 80 µg/mL (≈ 258 µM); MIC (C. albicans serotipo A; Candida albicans): 2.5 µg/mL (≈ 8.05 µM); MIC (C. albicans serotipo A; [10]): 2.50 µg/mL (≈ 8.05 µM); MIC (Microsporum gypseum (-); DST agar): 2.5 µg/mL (≈ 8.05 µM); MIC (Microsporum gypseum (-); [10]): 5 µg/mL (≈ 16.1 µM); MIC ([4]; DST agar): 10 µg/mL (≈ 32.2 µM); MIC [4, 10]: 20 µg/mL (≈ 64.4 µM); MIC ([5]; DST agar): 1 µg/mL (≈ 3.22 µM); MIC [5, 10]: 1.25 µg/mL (≈ 4.03 µM); MIC (C. tropicalis SQ 1647; Candida tropicalis, SQ1647): 10 µg/mL (≈ 32.2 µM); MIC (C. tropicalis SQ 1647; [10]): 10.00 µg/mL (≈ 32.2 µM); MIC (S. cerevisiae ATCC 9763; ATCC9763, DST agar): 0.25 µg/mL (≈ 0.805 µM); MIC (S. cerevisiae ATCC 9763; ATCC9763, Emmon's Sabouraud dextrose agar): 0.63 µg/mL (≈ 2.03 µM); MIC ([6]; ATCC28838, DST agar): 0.05 µg/mL (≈ 0.161 µM); MIC ([6]; ATCC28838, Emmon's Sabouraud dextrose agar): 1.25 µg/mL (≈ 4.03 µM); MIC ([7]; DST agar): 1 µg/mL (≈ 3.22 µM); MIC [7, 10]: 5 µg/mL (≈ 16.1 µM)

Q: Which liposolubility ([8]; in words) does the source give for `Fc1ccc(C(c2ccccc2)(c2ccccc2F)n2ccnc2)cc1` (stereo not shown) [UR-4056, 1-[(2-fluorophenyl) (4-fluorophenyl)phenylmethyl]-1H-imidazole] here?
A: good liposolubility

Q: And the logP ([8]; octanol-water)?
A: 3.09

Q: And the antifungal activity (fungi (some species))?
A: very good activity against some species

Q: And the MIC (Microsporum gypseum; DST agar)?
A: 0.5 µg/mL (≈ 1.44 µM)

Q: And the MIC (Microsporum gypseum; [10])?
A: 1.25 µg/mL (≈ 3.61 µM)

Q: And the MIC ([1]; DST agar)?
A: 0.025 µg/mL (≈ 0.0722 µM)

Q: And the MIC [1, 10]?
A: 0.63 µg/mL (≈ 1.82 µM)

Q: What about the MIC ([2]; DST agar, read-out: MIC) of the same compound?
A: 0.5 µg/mL (≈ 1.44 µM)

Q: What about the MIC [2, 11] of the same compound?
A: 0.63 µg/mL (≈ 1.82 µM)

Q: And the MIC ([3]; DST agar, read-out: MIC)?
A: 10 µg/mL (≈ 28.9 µM)

Q: What about the MIC [3, 11] of the same compound?
A: 40 µg/mL (≈ 115 µM)

Q: And the MIC (C. albicans serotipo A; Candida albicans, DST agar, read-out: MIC)?
A: 1 µg/mL (≈ 2.89 µM)

Q: And the MIC (C. albicans serotipo A; Candida albicans, Emmon's Sabouraud dextrose agar, read-out: MIC)?
A: 1.25 µg/mL (≈ 3.61 µM)

Q: What about the MIC (Microsporum gypseum (-); DST agar) of the same compound?
A: 0.1 µg/mL (≈ 0.289 µM)

Q: What about the MIC (Microsporum gypseum (-); [10]) of the same compound?
A: 0.63 µg/mL (≈ 1.82 µM)

Q: What about the MIC ([4]; DST agar, read-out: MIC) of the same compound?
A: 0.5 µg/mL (≈ 1.44 µM)

Q: What about the MIC [4, 11] of the same compound?
A: 0.08 µg/mL (≈ 0.231 µM)

Q: And the MIC ([5]; DST agar, read-out: MIC)?
A: 0.5 µg/mL (≈ 1.44 µM)

Q: What about the MIC [5, 11] of the same compound?
A: 1.25 µg/mL (≈ 3.61 µM)

Q: And the MIC (C. tropicalis SQ 1647; Candida tropicalis, SQ1647, DST agar, read-out: MIC)?
A: 1 µg/mL (≈ 2.89 µM)

Q: And the MIC (C. tropicalis SQ 1647; Candida tropicalis, SQ1647, Emmon's Sabouraud dextrose agar, read-out: MIC)?
A: 0.63 µg/mL (≈ 1.82 µM)

Q: And the MIC (S. cerevisiae ATCC 9763; ATCC9763, DST agar, read-out: MIC)?
A: 0.1 µg/mL (≈ 0.289 µM)

Q: What about the MIC (S. cerevisiae ATCC 9763; ATCC9763, Emmon's Sabouraud dextrose agar, read-out: MIC) of the same compound?
A: 0.31 µg/mL (≈ 0.895 µM)

Q: What about the MIC ([6]; ATCC28838, DST agar, read-out: MIC) of the same compound?
A: 0.025 µg/mL (≈ 0.0722 µM)

Q: What about the MIC ([6]; ATCC28838, Emmon's Sabouraud dextrose agar, read-out: MIC) of the same compound?
A: 0.63 µg/mL (≈ 1.82 µM)

Q: And the MIC ([7]; DST agar, read-out: MIC)?
A: 0.1 µg/mL (≈ 0.289 µM)

Q: And the MIC [7, 11]?
A: 1.25 µg/mL (≈ 3.61 µM)

Q: What about the pharmacokinetics (Pharmacokinetics) of the same compound?
A: appropiate pharmacokinetics

Q: And the tolerance (mice)?
A: good tolerance

Q: And the “potency compared with bifonazole” value [9]?
A: more potent than bifonazole in many instances

Q: And the LD50 (Tolerance (DL50) in mice)?
A: 691 mg/kg
